Assay results published in patent publication US9095561B2, “Methods for affecting homology-directed DNA double stranded break repair” (University of South Carolina, priority 2010, dated 2015).
Where a SMILES comes first, the peptide text is derived from it. The star is where a group is joined. Cbz = O=C(OCc1ccccc1)*

Columns and labels:
HA-RAD51D = HA-RAD51D protein levels after CHX with or without proteasome inhibitor MG132; format: cell-based, mouse; design: HA-RAD51D protein levels elevated: dose or concentration left out as unconfirmed
Description: FIG. 18 illustrates analysis of MEFs that were treated with CHX ([…]) or CHX in combination with MG132 ([…]). Cell lysates were prepared at the 4 hour time point, and HA-RAD51D band intensity was calculated as described herein.
To determine whether decreased HA-RAD51D half-life can be attributed to proteasome degradation, HA-RAD51D protein levels were assessed following treatment with the proteasome inhibitor MG132. As anticipated, HA-RAD51D protein levels were elevated up to 42% in MG132 treated samples (FIG. 18, lanes 1-4) indicating RAD51D protein levels are in part regulated by the proteasome.

RAD51 foci = RAD51 foci formation by immunofluorescence in MEFs; format: cell-based, mouse; details: MMC 200 ng/mL, 16 h exposure, RNF138 proficient MEFs; untreated control approximately 21 percent; p<0.01
Description: The presence of RAD51 foci was examined in MEFs subjected to either 200 ng/mL Mitomycin C (MMC) treatment or with no treatment. In addition, both deficient RNF138 cells and proficient RNF138 cells were examined.
For analysis of RAD51 foci formation, 10,000 cells were seeded onto glass coverslips for transfection with Rnf138 siRNA. Twenty-four hr following siRNA transfection, cells were challenged with MMC (200 ng/mL) for 16 hr. Immunofluoresence detection of RAD51 foci was carried out as is generally known I the art (see, e.g., Smiraldo et al., 2005). Cells containing five or more distinct foci were scored positive. For each condition, a minimum of 250 cells from at least three independent experiments was analyzed (n≧750).
The presence of RAD51 foci monitored by immunofluorescence is illustrated in FIGS. 12A-D. RAD51 foci indicates DNA damaged sites undergoing HR repair. MMC treatment (200 ng/mL) increased the percentage of cells containing 5 or more distinct RAD51 foci from approximately 21 percent for untreated control cells (FIG. 12B) to 51 percent (FIG. 12D) following a 16 h exposure (p<0.01). […] In addition, RAD51 foci formation was less in untreated RNF138 deficient (FIG. 12A) versus RNF138 proficient (FIG. 12B) MEFs. Although, a notable increase in RAD51 foci is still detected upon MMC treatment (FIG. 13).

| SMILES | HA-RAD51D protein stability following knockdown of RNF138 expression (HA-RAD51D; CHX plus MG132, 4 hour time point, RNF138 knockdown MEFs) | HA-RAD51D protein levels elevated (HA-RAD51D; CHX, 4 hour time point, MEFs) | percentage of cells containing 5 or more distinct RAD51 foci (RAD51 foci) [%] |
| --- | --- | --- | --- |
| CC(C)C[C@@H](C=O)NC(=O)[C@H](CC(C)C)NC(=O)[C@H](CC(C)C)NC(=O)OCc1ccccc1 [MG132] (Cbz-Leu-Leu-Leu-aldehyde) | failed to increase | up to 42% | – |
| CO[C@@]12[C@H](COC(N)=O)C3=C(C(=O)C(C)=C(N)C3=O)N1C[C@@H]1N[C@@H]12 [MMC, Mitomycin C] | – | – | 51 |
